According to patent US5077288A, “4-fluorobenzoic compounds with 5-HT2 - and α1 -antagonistic activities” (Adir et Compagnie, priority 1989, dated 1991):
Structures can show the parent of a compound that is named as a salt. Where two headings read alike, the source gives them in different places.

Key:
5-HT2 = target: T1, 5-HT2 (Rattus norvegicus, UniProt P14842); test: 5-HT2 antagonism: inhibition of hypertensive response to 5-hydroxytryptamine; assay type: in vivo, rat (male Sprague-Dawley); conditions: iv, 10 min, i.v., cumulative doses, 5-hydroxytryptamine 100 μg/kg i.v., prazosin pretreatment, read-out: ID50, dose inhibiting the hypertensive response by 50%
T1 construct: from tissue; host or cells: whole anaesthetised male Sprague-Dawley rat in vivo (vasculature; arterial blood pressure recorded)
Method: Male Sprague-Dawley rats (350-400 g) are anesthetized i.p. with pentobarbital (45 mg/kg). The trachea is cannulated and the animals are subjected to artificial respiration. The vagus nerves are sectioned. A catheter is placed in a carotid artery to record the arterial blood pressure. A second catheter is placed in the vein of the penis and is used for the injections. The animals' temperature is taken and is maintained at 37° C. The rats are pretreated with d-tubocurarine (1 mg/kg i.v.) an prazosin (1 mg/kg i.v.). 5-Hydroxytryptamine is injected i.v. at a dose of 100 μg/kg twice, separated by an interval of 10 minutes, so as to determine the rise in the systolic arterial blood pressure of each rat 10 minutes later, the compounds of the invention are injected at the lowest dose and injection of 5-hydroxytryptamine is performed again 10 minutes later. 3 or 4 cumulative doses of the compounds of the invention are tested in the same manner. The percentages of the hypertensive response which are obtained at the different doses are calculated in order to determine the ID50, the dose inhibiting the hypertensive response by 50%.

5-HTP = 5-HTP antagonism: forepaw treading, flat body posture and head twitches induced by 5-hydroxytryptophan; assay type: in vivo, rat (female Wistar); conditions: Rattus norvegicus
Method: 4 Female Wistar rats (270±30 g), fasted for approximately 24 hours, are used. At the beginning of the test, they are administered the "control" solution or solutions of 5-hydroxytryptophan at a dose of 320 mg/kg. The animals are then placed under observation in transparent cages. Three parameters are assessed in the study: "forepaw treading", "flat body posture" and "head twitches". "Forepaw treading" corresponds to a pedalling motion of the forelimbs. This parameter is measured 80 minutes after the administration of 1,5-hydroxytryptophan and during a ten-minute observation period. This time is divided into 5- second periods and, if a movement is observed in this period, a score of 1 is assigned, the maximum score being […] for the ten minutes of observation and for each animal. The parameter "head twitches" relates to the number of twitches of the head of the animals observed during 10 minutes. This parameter is assessed 90 minutes after the administration of 1,5-hydroxytryptophan and during a 10- minute period. "Flat body posture" corresponds to a flattening of the body which lasts for more than 10 minutes. This parameter is assessed throughout the period of observation of the animals.

α1 receptor = conditions: in words; cited from earlier work
[1] = sc, read-out: ED50 HT (head twitches)
[2] = sc, subcutaneously, 5-hydroxytryptophan 320 mg/kg, Table IV, read-out: ED50 FBP (flat body posture)
[3] = sc, subcutaneously, 5-hydroxytryptophan 320 mg/kg, Table IV, read-out: ED50 FPT (forepaw treading)

T1 sequence (P14842 whole entry): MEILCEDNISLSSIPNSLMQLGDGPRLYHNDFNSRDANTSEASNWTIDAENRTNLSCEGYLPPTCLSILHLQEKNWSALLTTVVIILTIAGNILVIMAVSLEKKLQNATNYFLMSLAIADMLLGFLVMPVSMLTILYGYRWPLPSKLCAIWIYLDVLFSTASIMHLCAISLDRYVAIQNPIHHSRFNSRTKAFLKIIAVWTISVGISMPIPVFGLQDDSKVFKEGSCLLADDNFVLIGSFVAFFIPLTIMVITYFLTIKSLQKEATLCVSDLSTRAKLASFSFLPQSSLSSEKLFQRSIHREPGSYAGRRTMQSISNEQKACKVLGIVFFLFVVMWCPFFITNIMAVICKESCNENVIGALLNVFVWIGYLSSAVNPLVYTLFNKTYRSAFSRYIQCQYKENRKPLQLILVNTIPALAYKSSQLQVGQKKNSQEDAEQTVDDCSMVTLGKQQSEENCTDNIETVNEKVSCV

Row | Compound | ED50 (5-HT2) [µg/kg] | ED50 (5-HTP; [1]) [mg/kg] | ED50 (5-HTP; [2]) [mg/kg] | ED50 (5-HTP; [3]) [mg/kg] | ED50 (5-HTP; read-out: ED50 HT (head twitches)) [mg/kg] | ED50 (5-HTP; Table V, route not given, 5-hydroxytryptophan 320 mg/kg, read-out: ED50 FBP (flat body posture)) [mg/kg] | ED50 (5-HTP; Table V, route not given, 5-hydroxytryptophan 320 mg/kg, read-out: ED50 FPT (forepaw treading)) [mg/kg] | α1 antagonist activity (α1 receptor)
1 | Cc1nc2c(C#N)ncn2c(O)c1CCN1CCC(C(=O)c2ccc(F)cc2)CC1 [EXAMPLE 1, 8-Cyano-3-{2-[4-(4-fluorobenzoyl)piperidino]ethyl}-4-hydroxy-2-methylimidazo[l,5-a]pyrimidine hydrochloride] | 4.5 | > 40 | 0.04 | 40 |  |  |  | 
2 | Cl.O=C(c1ccc(F)cc1)C1CCN(CCCN2C(=O)CN(Cc3ccccc3F)CC2=O)CC1 [EXAMPLE 2, 1-{3-[4-(4-Fluorobenzoyl)piperidino]propyl}-4-(2-fluorobenzyl) piperazine 2,6-dione hydrochloride] | 14 | 5 | 0.31 | 10 |  |  |  | 
3 | Cl.O=C(c1ccc(F)cc1)C1CCN(CCCN2C(=O)CN(Cc3ccccn3)CC2=O)CC1 [EXAMPLE 3, 1-{3-[4-(4-Fluorobenzoyl)piperidino]propyl}-4-(2-pyridylmethyl) piperazine 2,6-dione hydrochloride] |  | 5 | 0.31 | 1.25 |  |  |  | 
4 | Cl.O=C(c1ccc(F)cc1)C1CCN(CCCCN2C(=O)CN(Cc3ccccc3F)CC2=O)CC1 [EXAMPLE 4, 1-{4-[4-(4-Fluorobenzoyl)piperidino]butyl}-4-(2-fluorobenzyl) piperazine 2,6-dione hydrochloride] |  |  | 10 | 5 |  |  |  | 
5 | O=C(CC1CCN(CCCN2C(=O)CN(Cc3ccccc3F)CC2=O)C1)c1ccc(F)cc1.O=C(O)C(O)C(O)C(=O)O (stereo not shown) [EXAMPLE 5, 4-(2-Fluorobenzyl)-1-{3-[3-(4-fluorophenacyl)-1-pyrrolidinyl]propyl}piperazine 2,6-dione tartrate] |  | > 10 | 0.31 | 10 |  |  |  | 
6 | O=C(CC1CCCN(CCCN2C(=O)CN(Cc3ccccc3F)CC2=O)C1)c1ccc(F)cc1 (stereo not shown) [EXAMPLE 6, 4-(2-Fluorobenzyl)-1-{3-[3-4-fluorophenacyl)piperidino]propyl)}piperazine 2,6-dione ditartrate] | 3.7 |  | 1.25 | 2.5 |  |  |  | 
7 | Cl.Cl.O=C(c1ccc(F)cc1)C1CCN(CCCN2CCN(c3ncccn3)CC2)CC1 [EXAMPLE 7, 1-{3-[4-(4-Fluorobenzoyl)piperidino]propyl}-4-(2-pyrimidinyl) -piperazine dihydrochloride] |  | > 10 | 1.25 | 1.25 |  |  |  | 
8 | Cc1nc2c(C(N)=O)ncn2c(O)c1CCN1CCC(C(=O)c2ccc(F)cc2)CC1 [EXAMPLE 8, 8-Carbamoyl-3-{2-[4-(4-fluorobenzoyl)piperidino]-ethyl}-4-hydroxy-2-methylimidazol[1,5-a]pyrimidine hydrochloride] | 18 |  |  |  | > 10 | 0.63 | 10 | 
9 | Cc1nc2c(C(N)=O)ncn2c(O)c1CCN1CCC(CC(=O)c2ccc(F)cc2)C1.Cl (stereo not shown) [EXAMPLE 9, 8-Carbamoyl-3-{2-[3-(4-fluorophenacyl)-1-pyrrolidinyl]ethyl}-4-hydroxy-2-methylimidazo[1,5-a]pyrimidine hydrochloride] | 10 |  |  |  |  |  |  | 
10 | O=C(CC1CCN(CCn2c(=O)[nH]c3ccccc3c2=O)C1)c1ccc(F)cc1 (stereo not shown) [EXAMPLE 10, 2,4-Dioxo-3-{2-[3-(4-fluorophenacyl)-1-pyrrolidinyl]ethyl}-1,2,3,4-tetrahydrocuinazoline hydrochloride] | 5.4 | 2.5 | 0.16 | 0.31 |  |  |  | 
11 | Cc1cccc(CN2CC(=O)N(CCCN3CCC(C(=O)c4ccc(F)cc4)CC3)C(=O)C2)c1.Cl [EXAMPLE 15, 1-{3-[4-(4-Fluorobenzoyl)piperidino]propyl}-4-(3-methylbenzyl) piperazine 2,6-dione hydrochloride] |  | 5 | 2.5 | 10 |  |  |  | 
12 | COc1cccc(CN2CC(=O)N(CCCN3CCC(C(=O)c4ccc(F)cc4)CC3)C(=O)C2)c1.Cl [EXAMPLE 18, 1-{3-[4-(4-Fluorobenzoyl)piperidino]propyl}-4-(3-methoxybenzyl) piperazine 2,6-dione hydrochloride] |  |  | 2.5 | 5 |  |  |  | 
13 | Cl.Cl.O=C(c1ccc(F)cc1)C1CCN(CCN2CCN(c3ncccn3)CC2)CC1 [EXAMPLE 21, 4-{2-[4-(4-Fluorobenzoyl)piperidino]ethyl}-1-(2-pyrimidinyl) piperazine dihydrochloride] |  | 1.25 | 0.63 | 2.5 |  |  |  | 
14 | O=C(c1ccc(F)cc1)C1CCN(CCn2c(=O)[nH]c3ccccc3c2=O)CC1 [KETANSERIN] |  |  |  |  |  |  |  | devoid of α1 antagonist activity
